For data set [1], the system named is SH-SY5Y, the human neuroblastoma cell line. The data set can be described thus: Cell survival rate (calcein) in normal cells, cytotoxicity. The note with it: human, 4 h, 0.5 μg/ml. The class given is cell-based. The procedure:
Particularly, SH-SY5Y, the human neuroblastoma cell line, was inoculated in DMEM/F12 (Dulbeco's Modified Eagle's Medium & Ham's F12; Gibco, USA) supplemented with 10% FBS, followed by culture in a 37° C., 5% CO2/95% air (O2) incubator. Then, the cultured cells were transferred into a serum free medium at the density of 2.5×10^4 cells/well. […] The cells were collected and the cell survival rate was measured by using calcein. The survival rate of the cells that were increased or decreased compared with that of the normal control cells not-treated with the extract or its active component above and instead treated with DMSO was calculated and presented as percentage (%). Particularly, SH-SY5Y cells were cultured by the same manner as described in Experimental Example <1-1>. The cultured cells were transferred in a serum free medium at the density of 2.5×10^4 cells/well. […] The cells were collected and the cell survival rate was measured by using calcein. The cell survival rate that was increased or decreased compared with that of the normal control group not-treated with the extract or its active component above and instead treated with DMSO was calculated and presented as percentage (%).

Data set [2] deals with SH-SY5Y cells. As to the kind of experiment: MTT assay, endoplasmic reticulum stress induced by thapsigargin or tunicamycin. The class given is cell-based, human. The note with it: treatment 0.5 μg/ml. The procedure:
Particularly, SH-SY5Y cells were cultured by the same manner as described in Experimental Example <1-2>. The cells were treated with 1.0 ug/ml of the Angelica Dahurica Root extract prepared in Example <1-2> or 0.5 μg/ml or 1.0 μg/ml of Imperatorin, the active component thereof, followed by culture for 4 hours. The cells were treated with 0.5 μg/ml of thapsigargin (Thap) or 1 μg/ml of tunicamycin (Tuni), followed by culture for 24 hours to induce endoplasmic reticulum stress. Then, MTT assay was performed by the same manner as described in Experimental Example <1-2>. Compared with the normal control cells not treated with the extract or the active component thereof but treated with DMSO, the damage of mitochondria complex 1 in the cells, either increased or decreased, was investigated. The negative control was treated with 0.5 μg/ml of thapsigargin or 1 μg/ml of tunicamycin to cause endoplasmic reticulum stress but not treated with the extract or the active component thereof, followed by MTT assay by the same manner as described above.

The test system of data set [3] is SH-SY5Y cells. The data set can be described thus: ATP assay, endoplasmic reticulum stress induced by thapsigargin or tunicamycin. The conditions noted are these: treatment 0.5 μg/ml. The class given is cell-based, human. On the procedure:
Particularly, SH-SY5Y cells were cultured by the same manner as described in Experimental Example <2-2>, and endoplasmic reticulum stress was induced. Then, the intracellular ATP level was measured by the same manner as described in Experimental Example <1-3>. The normal control was not treated with the extract of the invention or the active component thereof but treated with DMSO alone. All the results were presented as % by the normal control to present the intracellular ATP level. The negative control was not treated with the extract or the active component but treated with 0.5 μg/ml of thapsigargin or 1.0 μg/ml of tunicamycin alone to induce endoplasmic reticulum stress. Then, the Intracellular ATP level was measured by the same manner as described above.

The test system of another data set is GRP78. The data set can be described thus: RT-PCR of endoplasmic reticulum stress marker GRP78, thapsigargin. Type of data set: cell-based, human. The note with it: treatment 0.5 μg/ml, thapsigargin 0.5 μg/ml; negative control 100.00. On the procedure: (§1) Particularly, SH-SY5Y cells were cultured by the same manner as described in Experimental Example <2-2>, and endoplasmic reticulum stress was induced. Then, RT-PCR was performed with the cells having endoplasmic reticulum stress by the same manner as described in Experimental Example <1-4>, followed by electrophoresis to investigate the expression levels of GRP78 and XBP1p genes on 1.5% agarose gel under UV. The normal control was not treated with the extract of the invention or the active component thereof but treated with DMSO alone. The negative control was not treated with the extract or the active component but treated with 0.5 μg/ml of thapsigargin alone to induce endoplasmic reticulum stress. Then, the expression of the endoplasmic reticulum stress marker gene was confirmed by the same manner as described above.
(§2) Particularly, SH-SY5Y cells were cultured by the same manner as described in Experimental Example <2-2>, and endoplasmic reticulum stress was induced. Then, RT-PCR was performed with the cells having endoplasmic reticulum stress by the same manner as described in Experimental Example <1-4>, followed by electrophoresis to investigate the expression levels of GRP78 and XBP1p genes on 1.5% agarose gel under UV. The normal control was not treated with the extract of the invention but treated with DMSO alone. […]

The test system of the next data set is XBP1p. The data set can be described thus: RT-PCR of endoplasmic reticulum stress marker XBP1p, thapsigargin. The class given is cell-based, human. The conditions noted are these: treatment 0.5 μg/ml, thapsigargin 0.5 μg/ml; negative control 100.00. The procedure:
as §1, §2

`CC(C)=CCOc1c2occc2cc2ccc(=O)oc12` [Imperatorin, 9-[(3-Methyl-2-buten-1-yl)oxy]-7h-furo[3,2-g][1]benzopyran-7-one]: the “Cell survival rate (% of control)” value in data set [1] is reported as 101.16 ± 0.59 % of control. The “MTT (% of control)” value is reported as 86.23 ± 5.31 % of control with SH-SY5Y cells [2] (inducer thapsigargin 0.5 μg/ml) and 84.93 ± 3.68 % of control with SH-SY5Y cells [2] (inducer tunicamycin 1.0 μg/ml). Further, the “Intracellular ATP content (% of control)” value with SH-SY5Y cells [3] (inducer thapsigargin 0.5 μg/ml) is listed as 104.85 ± 5.13 % of control; in the data set with SH-SY5Y cells [3] (inducer tunicamycin 1.0 μg/ml), 86.00 ± 1.18 % of control. The “GRP78/18S mRNA” value in the data set on GRP78 is on record as 2.97 ± 0.05. The “XBP1p/18S mRNA” value with XBP1p is on record as 4.01 ± 0.05.

Values taken from US10660928B2, “Pharmaceutical composition containing combination extracts of Moutan Root Bark, Angelica Dahurica Root, bupleurum root or fractions thereof for prevention and treatment of neurodegenerative disorder” (UNIVERSITY-INDUSTRY COOPERATION GROUP OF KYUNG HEE …, priority 2014, dated 2020).
